Measurements from PMC8536124 (International Journal of Molecular Sciences, 2021).
Where two headings read alike, the source gives them in different places.

How the values were obtained:
Type in all cases: cell-based, human
SW-620 = assay: NCI-60 screening (SRB); details: five-dose
HS 578T = assay: NCI-60 screening (SRB); details: five-dose
K-562 = assay: NCI-60 screening (SRB)
[1] = test system: NCI-60 cancer cell line panel; assay: NCI-60 screening (SRB), full panel; details: for activity at 10 µM: 60 cell lines, 48 h
From the text: The experimental data allow the assessment of the cytostatic effect, indicated by growth inhibition values ranging between 0 and 100, as well as of the cytotoxic effect, indicated by negative values.
The mean GI50 (molar concentration of the compound that inhibits 50% net cell growth), TGI (molar concentration of the compound leading to the total inhibition), and LC50 (molar concentration of the compound leading to 50% net cell death (presented in negative logarithm)) values across each cell line are shown in Table 2.
The selectivity index (SI), calculated as the ratio between the full panel MG_MID60 (μM) of compounds 4, 6, and 9 by their respective subpanels MG_MID of the cell line (μM), was introduced as a quantification tool for the selectivity of each compound in terms of anticancer effect (Table 3).
Primary anticancer assays were performed according to the NCI protocol, as described elsewhere (see e.g., http://dtp.nci.nih.gov accessed on 1 November 2018). The compounds were added at a single concentration, and the cell cultures were incubated for 48 h. The end point determinations were made with a protein-binding dye, sulforhodamine B (SRB). […] The percentage of growth was evaluated spectrophotometrically versus controls not treated with test agents after 48 h exposure and using SRB protein assay to estimate cell viability or growth. Three antitumor activity dose-response parameters were calculated for each cell line. Furthermore, mean graph midpoints (MG_MID) were calculated for each of the parameters, giving an average activity parameter over all cell lines for the tested compound. For the MG_MID calculation, insensitive cell lines were included with the highest concentration tested.

MDA-MB-435 = assay: NCI-60 screening (SRB); details: five-dose
A498 = assay: NCI-60 screening (SRB); details: A498, five-dose
NCI-H322M = assay: NCI-60 screening (SRB); details: five-dose
HT29 = assay: NCI-60 screening (SRB)
ACHN = assay: NCI-60 screening (SRB); details: five-dose
U251 = assay: NCI-60 screening (SRB); details: U251, five-dose
EKVX = assay: NCI-60 screening (SRB); details: five-dose
OVCAR-4 = assay: NCI-60 screening (SRB); details: five-dose
786-0 = assay: NCI-60 screening (SRB); details: five-dose
T-47D = assay: NCI-60 screening (SRB); details: five-dose
[2] = Homo sapiens, read-out: LC50 (the source's name)

**Q.** How did the GI50 (SW-620; Homo sapiens) turn out when `CCN1CCN(C(=O)[C@]23CC[C@@H](C)[C@H](C)[C@H]2C2=CC[C@@H]4[C@@]5(C)C/C(=C/c6cccnc6)C(=O)C(C)(C)[C@@H]5CC[C@@]4(C)[C@]2(C)CC3)CC1` [Compound 9, N-(2-{3-Pyridinylidene}-3-oxoursan-12-en-28-oyl)-ethylpiperazine] was run?
**A.** Its GI50 is 1.9 µM.

**Q.** What about the CC50 (SW-620; [2]) of the same molecule?
**A.** Its CC50 is 9.05 µM.

**Q.** What about the TGI (SW-620) of the same molecule?
**A.** The TGI was 4.14 µM.

**Q.** And the GI50 (HS 578T; Homo sapiens)?
**A.** The GI50 was 1.91 µM.

**Q.** And the CC50 (HS 578T; [2])?
**A.** Its CC50 is greater than 100 µM.

**Q.** And the TGI (HS 578T)?
**A.** Its TGI is 4.77 µM.

**Q.** And the GI50 (K-562; Homo sapiens, K562, five-dose)?
**A.** The GI50 was 2.08 µM.

**Q.** And the CC50 (K-562; Homo sapiens, K562, five-dose, read-out: LC50 (the source's name))?
**A.** Its CC50 is greater than 100 µM.

**Q.** And the TGI (K-562; five-dose)?
**A.** The TGI was 5.00 µM.

**Q.** What about the “Positive Cytostatic Effect (cell lines with percent growth 0 to 50 / total)” value ([1]; 1 dose 10 µM) of the same molecule?
**A.** Its value is 33/59.

**Q.** And the “Positive Cytotoxic Effect (cell lines with percent growth <0 / total)” value ([1]; 1 dose 10 µM)?
**A.** Its value is 5/59.

**Q.** What about the GI50 ([1]; Homo sapiens, five-dose, bound, read-out: GI50 against all human tumor cells) of the same molecule?
**A.** The GI50 was less than 4 µM.

**Q.** What about the GI50 ([1]; Homo sapiens, mean graph midpoint, full panel, five-dose, read-out: GI50 MG_MID60) of the same molecule?
**A.** Its GI50 is 1.93 µM.

**Q.** And the CC50 ([1]; Homo sapiens, mean graph midpoint, full panel, five-dose, read-out: LC50 MG_MID60)?
**A.** The CC50 was 38 µM.

**Q.** And the activity at 10 µM ([1]; Homo sapiens, 1 dose 10 µM, read-out: Mean Growth, %)?
**A.** The activity at 10 µM was 25.3%.

**Q.** What about the activity at 10 µM ([1]; Homo sapiens, 1 dose 10 µM, read-out: Range of Growth, %) of the same molecule?
**A.** Its activity at 10 µM is -38.2 to 65.7%.

**Q.** What about the “TGI MG_MID60” value ([1]; mean graph midpoint, full panel, five-dose) of the same molecule?
**A.** The value was 5.29 µM.

**Q.** What about the selectivity class ([1]; toward some individual cell lines at the LC50 level) of the same molecule?
**A.** Its selectivity class is “moderate selectivity (Ratios between 3 and 6 are indicators of moderate selectivity)”.

**Q.** And the GI50 (MDA-MB-435; Homo sapiens)?
**A.** The GI50 was 1.7 µM.

**Q.** And the CC50 (MDA-MB-435; [2])?
**A.** Its CC50 is 7.18 µM.

**Q.** What about the TGI (MDA-MB-435) of the same molecule?
**A.** Its TGI is 3.49 µM.

**Q.** What about the TGI (A498) of the same molecule?
**A.** The TGI was 4.05 µM.

**Q.** What about the GI50 (A498; Homo sapiens) of the same molecule?
**A.** Its GI50 is 1.9 µM.

**Q.** And the CC50 (A498; [2])?
**A.** The CC50 was 8.65 µM.

**Q.** And the GI50 (NCI-H322M; Homo sapiens)?
**A.** The GI50 was 2.28 µM.

**Q.** What about the CC50 (NCI-H322M; [2]) of the same molecule?
**A.** The CC50 was 28.8 µM.

**Q.** What about the TGI (NCI-H322M) of the same molecule?
**A.** The TGI was 8.27 µM.

**Q.** And the GI50 (HT29; Homo sapiens, HT-29, five-dose)?
**A.** Its GI50 is 1.93 µM.

**Q.** What about the CC50 (HT29; Homo sapiens, HT-29, five-dose, read-out: LC50 (the source's name)) of the same molecule?
**A.** The CC50 was greater than 100 µM.

**Q.** What about the TGI (HT29; five-dose) of the same molecule?
**A.** Its TGI is 5.36 µM.

**Q.** What about the GI50 (ACHN; Homo sapiens) of the same molecule?
**A.** The GI50 was 2.46 µM.

**Q.** What about the LC50 (ACHN; Homo sapiens) of the same molecule?
**A.** The LC50 was 22.6 µM.

**Q.** What about the TGI (ACHN) of the same molecule?
**A.** The TGI was 6.45 µM.

**Q.** And the GI50 (U251; Homo sapiens, U-251)?
**A.** Its GI50 is 1.82 µM.

**Q.** What about the TGI (U251) of the same molecule?
**A.** The TGI was 3.67 µM.

**Q.** And the GI50 (EKVX; Homo sapiens)?
**A.** Its GI50 is 2.17 µM.

**Q.** What about the LC50 (EKVX; Homo sapiens) of the same molecule?
**A.** Its LC50 is 61.7 µM.

**Q.** And the TGI (EKVX)?
**A.** The TGI was 7.32 µM.

**Q.** What about the GI50 (OVCAR-4; Homo sapiens) of the same molecule?
**A.** The GI50 was 2.57 µM.

**Q.** And the CC50 (OVCAR-4; [2])?
**A.** The CC50 was 36.6 µM.

**Q.** And the TGI (OVCAR-4)?
**A.** Its TGI is 7.36 µM.

**Q.** And the GI50 (786-0; Homo sapiens)?
**A.** The GI50 was 1.98 µM.

**Q.** And the TGI (786-0)?
**A.** The TGI was 4.37 µM.

**Q.** And the GI50 (T-47D; Homo sapiens, T47D)?
**A.** Its GI50 is 2.79 µM.

**Q.** What about the LC50 (concentration killing 50% of cells) (T-47D; Homo sapiens, T47D) of the same molecule?
**A.** Its LC50 (concentration killing 50% of cells) is greater than 100 µM.

**Q.** What about the TGI (T-47D) of the same molecule?
**A.** The TGI was 13.4 µM.
